Source: patent US10550143B2, “C,O-spiro aryl glycoside compounds, preparation therefor and use thereof” (SHANGHAI INSTITUTE OF MATERIA MEDICA, CHINESE ACADEMY OF …, priority 2015, dated 2020)

Biological target: T1, hSGLT1 (Homo sapiens, UniProt P13866)
T1 sequence (P13866 1-664): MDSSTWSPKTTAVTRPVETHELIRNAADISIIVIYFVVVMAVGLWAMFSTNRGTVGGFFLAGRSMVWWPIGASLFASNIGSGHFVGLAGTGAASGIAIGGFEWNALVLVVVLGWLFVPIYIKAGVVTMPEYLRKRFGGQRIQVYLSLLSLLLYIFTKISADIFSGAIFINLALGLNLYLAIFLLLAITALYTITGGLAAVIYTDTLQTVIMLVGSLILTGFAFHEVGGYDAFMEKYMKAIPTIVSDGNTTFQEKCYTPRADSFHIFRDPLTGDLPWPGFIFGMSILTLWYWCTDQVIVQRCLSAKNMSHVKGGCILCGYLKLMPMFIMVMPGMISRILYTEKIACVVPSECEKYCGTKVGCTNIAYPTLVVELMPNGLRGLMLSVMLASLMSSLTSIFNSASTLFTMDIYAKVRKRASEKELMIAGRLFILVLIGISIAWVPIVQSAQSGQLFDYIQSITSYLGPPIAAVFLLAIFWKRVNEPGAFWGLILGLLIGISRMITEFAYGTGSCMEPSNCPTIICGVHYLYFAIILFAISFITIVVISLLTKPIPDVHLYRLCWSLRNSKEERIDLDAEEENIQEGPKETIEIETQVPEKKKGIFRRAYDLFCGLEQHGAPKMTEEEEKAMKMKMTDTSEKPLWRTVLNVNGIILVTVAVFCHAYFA
Test: In vitro SGLT1 inhibition (hSGLT1 IC50 test)
Assay type: cell-based
Conditions: read-out: IC50 ± SD SGLT1

IC50: 2060 ± 210 nM
Compound: CCc1ccc(Cc2cc3c(cc2Cl)CO[C@]32O[C@H](C)[C@@H](O)[C@H](O)[C@H]2O)s1 [Example A28, (1S,3′R,4′S,5′S,6′R)-6′-methyl-6-((5-ethylthienyl)-2-methyl)-5-chloro-3′,4′,5′,6′-tetrahydro-3H-spiro[isobenzofuran-1,2′-pyran]-3′,4′,5′-triol]
